Assay results from patent US8058228B2, “Leptin peptide antagonists” (Boston Biomedical Research Institute, priority 2004, dated 2011).
“Also recorded” adds a separate entry of the source.

Tests used:
Type in all cases: cell-based
OB-R [1] = assay: IL-1R tl expression by rabbit endometrial cells (immunocytochemistry, Western blot); conditions: for effect on leptin up-regulation of IL-1R tl expression: LPA-2 30 and 120 nM, LPA-2Sc 120 nM, antibody 20 μg/ml
Description: (§1) Rabbit endometrial cells (5×10^5 cells/well) were cultured for 5-9 days in DMEM-MCDB105 (3:1) medium containing 10% fetal bovine serum (FBS), 5 μg/ml insulin, 1% amphopthericin B, 100 μg/ml streptomycin and 100 U/ml penicillin until confluent layers were obtained. The cells were washed twice with 100 mM phosphate saline buffer (PBS) −2% BSA (w/v), pH 7.2 and cultured for an additional 2 days in the same medium but without FBS (basal medium). This procedure was performed to reduce any effects of cytokines from FBS on the phosphorylation rate of Stat3 as well as the expression of other cytokines and their receptors. Cells were washed as described before and cultured in basal medium containing leptin (0-10 nM), OB-R antibody (1-20 μg/ml) and/or LPA-2 peptides (0-300 nM). Cultures were stopped at 24 h and the cells were used for immunocytochemistry, binding studies and western blot analysis. The conditioned media were collected, lyophilized and stored at −80° C. for ELISA determinations. Duplicate wells were run for each treatment and the experiments repeated at least three times with different cell preparations from different rabbits. Controls were the same cellular preparations cultured in basal medium containing non-specific goat IgGs and LPA-2Sc.
The rabbit endometrial cells were cultured as described above in duplicate on 8-well glass-bottom culture plates (Nalgene Nunc International, Naperville, Ill.) and fixed with methanol at −20° C. for 20 min for immunocytochemical studies. All the antibodies tested were diluted in PBS-2% BSA (w/v; buffer A).
Anti IL-1R tl (1 μg/ml), anti LIF-R (2 μg/ml), anti vimentin (1:50), anti cytokeratin (1:50) and anti p-Stat3 (1 μg/ml) antibodies were used to assess the expression of the respective antigens by rEEC and rESC cultures. After incubation with primary antibodies the cells were incubated with a streptavidin-biotin-alkaline phosphatase system according to the manufacturer directions (Vectastain, ABC-AP kit, Vector Laboratories, Burlingame, Calif.) and counter-stained with hematoxylin (Dako). Negative controls included cell preparations in which the primary antibodies were substituted by irrelevant species matched IgGs.
(§2) After culture in the presence of leptin, LPAs or antibodies, the endometrial cells were washed with ice-cold PBS and lysed by homogenization on ice with lysis buffer [[…] Tris, pH 7.4, containing […] NaCl, 2 mM EDTA, 10% glycerol, 50 mM β-glycerophosphate, […] NaF, 1% Nonidet P-40, 2 mM phenyl-methylsulfonyl fluoride, 2 mM sodium orthovanadate, 100 μM antipain, 0.1 mg/ml trypsin inhibitor and protease cocktail inhibitor 1:50 (Sigma)]. […] Protein concentrations were determined using the Bradford protein assay (BioRad Laboratories Inc., Hercules, Calif.). […]

OB-R [2] = assay: OB-R expression by rabbit endometrial cells (immunocytochemistry, Western blot); conditions: cultures of rESC or rEEC
Description: Rabbit endometrial cells (5×10^5 cells/well) were cultured for 5-9 days in DMEM-MCDB105 (3:1) medium containing 10% fetal bovine serum (FBS), 5 μg/ml insulin, 1% amphopthericin B, 100 μg/ml streptomycin and 100 U/ml penicillin until confluent layers were obtained. The cells were washed twice with 100 mM phosphate saline buffer (PBS) −2% BSA (w/v), pH 7.2 and cultured for an additional 2 days in the same medium but without FBS (basal medium). This procedure was performed to reduce any effects of cytokines from FBS on the phosphorylation rate of Stat3 as well as the expression of other cytokines and their receptors. […]
The expression of OB-R was assessed by incubation of rEC for 1 h at room temperature with goat antibodies directed towards the amino terminal ends of human OB-R (R&D system) diluted 1:80 in buffer A.
as §2

OB-R [3] = assay: LIF secretion by rabbit endometrial cell cultures (ELISA)
Description: as §1
IL-1β from rabbits and humans have sequence differences, but no data is available concerning the sequence of rabbit LIF. In addition, there are no commercial kits for measuring rabbit IL-1β or LIF. […] Conditioned media (n=3 per treatment) from rESC and rEEC cultured in the experimental conditions described above were used to quantify the secretion of LIF by ELISA (LIF-Quantikine®, R&D Systems). Standards, controls, and samples were assayed in duplicate. The intra- and interassay coefficients of variations were between 0.7-12% and 3-7%, respectively.

For “SRNVIQISNDLENLRDLLHVLAFSKS [LPA-2, 26 amino acid peptide, residues 70-95 of helix III of the human leptin molecule; leptin peptide antagonist]”, the “effect on basal expression of IL-1R tl” value (OB-R [1]; rESC, LPA-2 120 nM, Western blot) was “inhibited the basal expression of IL-1R tl”, the “effect on leptin up-regulation of IL-1R tl expression” value (OB-R [1]; rESC, leptin 3 nM) was “completely abolished; also recorded: significantly decreased” and the “expression of OB-R” value (OB-R [2]) was “did not affect the expression of OB-R”. For the same substance, the “effect on leptin induction of LIF secretion” value (OB-R [3]; rEEC, leptin 3 nM with LPA-2 3 to 300 nM, OB-R antibody 20 μg/ml) was “significantly inhibited the leptin (3 nM) induction of LIF secretion” and the “effect on leptin-induced LIF secretion at the higher leptin dose” value (OB-R [3]; rEEC, leptin 10 nM, equimolar LPA-2 (10 nM)) was “effectively inhibited; also recorded: completely inhibited”.
In the case of “VAEVLNRSDLIQRISFSLDLNNSKLH [LPA-2Sc, scrambled version of LPA-2, negative control, reference compound]”, the “effect on leptin up-regulation of IL-1R tl expression” value (OB-R [1]; rESC, leptin 3 nM) is reported as “did not alter the leptin effect on IL-1R tl expression”.
In the case of “leptin: human recombinant leptin (R&D Systems), OB-R ligand used as stimulus”, the “IL-1R tl expression after leptin” value (OB-R [1]; rabbit endometrial cells, leptin 3 nM) is reported as “substantially up-regulates IL-1R tl expression”, the “expression of OB-R” value (OB-R [2]) is reported as “did not affect the expression of OB-R” and the “LIF secretion after leptin” value (OB-R [3]; rEEC and rESC, more evident in rEEC) is reported as “increased LIF secretion in a dose-dependent manner”.
